Paper PMC9532755, “Impact of lactisole on the time-intensity profile of selected sweeteners in dependence of the binding site” (Food Chemistry: X, 2022)
Peptide text beside a SMILES is read from it.

Tested on: perceived sweet intensity (panelists)
Assay: Sensory time-intensity (TI) measurement of sweetness by a trained panel
Type: in vivo, human
Conditions: for Emax of max. intensity (sensory): scale 0-100, top < 100; for sweetener concentration up to which lactisole effectively inhibited the sweetness: time-intensity curves; for EC50: Homo sapiens, asymmetric five parameter curve fit, read-out: EC50 of max. intensity (sensory); for lingering: time point at which < 50 % of maximum sweetness was reached / onset (time of first maximum intensity): at sweet intensity saturation level: 50 mM cyclamate, 0.5 mM NHDC, 5.0 mM acesulfame K, 5.0 mM aspartame, without lactisole; for mode of inhibition by lactisole (shift of dose-response curve), sensory experiments: combination with 0.46 and 0.92 mM lactisole
Source text: All panelists gave their written informed consent for participating in the panel and had to complete a sensory training. […] On a last training day, the evaluation on unstructured scales and the time-dependent evaluation on the computer were trained. All panelists reported to be in good general health condition, and not being under medication or pregnant. At least one hour before every training or tasting, panelists were instructed not to smoke and not to consume intense tasting food or beverage (e.g. coffee, chili, garlic, chewing gum) and to avoid in general strong hunger or fullness as well as strong odors or perfume on test days.
Every test solution was assessed randomly at two different test days with at least 8 panelists participating per replicate. The panelists were free to choose to participate at the different test days. A maximum of five test compounds were assessed in one session. All samples were coded with three-digit random code and presented to the panelists in randomized order. On each test day, panelists were presented five sweet solutions with 0, 25, 50, 100 and 200 g/L sucrose as a scale training for the ratings from “not at all” to “very intensive” sweetness. […] The three minutes of evaluation were chosen to capture as much of the lingering as possible without wearing out the panelists during the evaluation. A total of 350 measuring time points was recorded within the pre-set time frame, especially to see differences in the first seconds of evaluation, which are important for the onset. The panelists were asked to take the sample (20 mL) into their mouth, while starting the timer and simultaneously the evaluation of sweet intensity over the time, and to spit out the sample after ten seconds while continuing the evaluation of the sweetness intensity until the end of the three minutes.
For comparison of the time-dependent properties, the following descriptors were used: the maximum intensity at the first 30 sec of evaluation as “max. intensity”, the time-point of the first maximum intensity as “onset” in sec, […], and the area under the curve from the time-intensity plots as “AUC” as a marker for the overall intensity and duration.
All sensory experiments were conducted at the Christian Doppler Laboratory for Taste Research at the Institute for Physiological Chemistry, University of Vienna, Austria, at room temperature (21 – 23 °C). • Calcium mobilization assay
The statistical analysis and graphical representation were performed with GraphPad Prism 9.0 for sensory results and with SigmaPlot 14.0 for cell experiments. To evaluate the sensory dose–response effects of ascending sweetener concentration w/o lactisole, an asymmetrical five-parameter curve (Richard́s five-parameter dose–response curve) was fitted. The data are presented as means ± SEM from at least 16 single evaluations. Statistical significance between the different test compounds and concentration-dependent effects was assessed by two-way ANOVAs with Tukey post hoc test using Graph Pad Prism. The normal distribution of the data sets was checked by evaluation of the kurtosis (between −7 to + 7) and the skewness (between −3 to + 3). Equal variance was tested using Levenés test. In case the assumptions of a normal distribution and equal variance were not met, the non-parametric ANOVA on ranks (Kruskal-Wallis Test) with Dunn's post-hoc test without the calculation of interaction was applied. A Pearson product moment correlation was conducted to investigate relationships between sensory results and cell responses of the tested sweeteners.

Row | SMILES | Hillslope of max. intensity dose-response (sensory) (0 mM lactisole) | Emax of max. intensity (sensory) (0 mM lactisole) | sweetener concentration up to which lactisole effectively inhibited the sweetness (0.46 mM lactisole) | sweetener concentration up to which lactisole effectively inhibited the sweetness (0.92 mM lactisole) | EC50 (0 mM lactisole) | lingering: time point at which < 50 % of maximum sweetness was reached | onset (time of first maximum intensity) | Hillslope of max. intensity dose-response (sensory) (with 0.46 mM lactisole) | Emax of max. intensity (sensory) (with 0.46 mM lactisole) | Hillslope of max. intensity dose-response (sensory) (with 0.92 mM lactisole) | Emax of max. intensity (sensory) (with 0.92 mM lactisole) | mode of inhibition by lactisole (shift of dose-response curve), sensory experiments
1 | CC1=CC(=O)NS(=O)(=O)O1 [acesulfame K] | 1.43 | unstable | up to 1 mM | up to 1 mM | 920 µM | 44.7 s | 4.6 s | 2.75 | 71.83 | 1.45 | 73.60 | 
2 | COc1ccc(CCC(=O)c2c(O)cc(O[C@@H]3O[C@H](CO)[C@@H](O)[C@H](O)[C@H]3O[C@@H]3O[C@@H](C)[C@H](O)[C@@H](O)[C@H]3O)cc2O)cc1O [NHDC, neohesperidin dihydrochalcone] | 0.94 | 97.73 | up to 0.2 mM | up to 0.5 mM | 56 µM | 100.7 s | 5.1 s | 0.89 | 100.00 | 0.82 | 100.00 | competitive inhibition
3 | COC(=O)[C@H](Cc1ccccc1)NC(=O)[C@@H](N)CC(=O)O [aspartame] (H-Asp-Phe-OMe) | 2.56 | 97.05 | ≤ 1.0 mM | up to 2.0 mM | 1090 µM | 71.4 s | 5.7 s | 1.28 | 99.22 | 1.32 | 100.00 | 
4 | O=S(=O)(O)NC1CCCCC1 [cyclamate] | 2.60 | 96.11 | up to 5.0 mM | ≤ 10.0 mM | 8720 µM | 60.1 s | 5.1 s | 2.18 | 92.37 | 2.10 | unstable | competitive inhibition
